Experimental data: patent US10434199B2, “Picolinate cross-bridged cyclams, chelates with metallic cations and use thereof” (UNIVERSITÉ DE BRETAGNE OCCIDENTALE, priority 2013, dated 2019)

Assay: Cyclic voltammetry of the copper(II) complexes
Format: physicochemical
Settings: overview table
Protocol: Cyclic voltammograms were measured using Autolab equipment at room temperature. All measurements were made using a three-electrode system: a glassy-carbon electrode as a working electrode, a platinum wire as a counter-electrode, and a saturated calomel reference electrode. All electrochemical experiments were performed in ca. 1 mM aqueous solutions of preformed complex under a N2 atmosphere containing 0.1 M NaClO4 as the supporting electrolyte. From the initial potential of the analysis (0 V), the voltage was ramped to −1.3 V, then to 0.2 V, and back to 0 V at a scan rate of 100 mV/s. All potentials are expressed relative to the saturated calomel electrode (SCE) except otherwise noted.
One of the explanations for the dissociation of copper(II) complexes of macrocyclic ligands in biological media is the metal reduction to copper(I) followed by the demetallation of the complex. It is thus important to ensure the electrochemical inertness as well as the reversibility of the redox system. To determine the redox behavior of the copper complex of Hcb-te1pa, cyclic voltammetry experiments were performed in aqueous solution at pH values of 2.3 and 6.8. The experiments were carried out with a glassy-carbon working electrode in solutions containing 0.1 M NaClO4 as supporting electrolyte.

- e) stability upon reduction, Cu(II) -> Cu (I): reduction potential: −0.696 V
- e) stability upon reduction, Cu(II) -> Cu (I): reversibility: reversible
SMILES: O=C(O)c1cccc(CN2CCCN3CCNCCCN(CC3)CC2)n1 [Hcb-te1pa, 6-(1,4,8,11-tetraazabicyclo[6.6.2]hexadecan-4-ylmethyl)picolinic acid]
